Measured values from US9504652B2 (Druggability Technologies IP Holdco (Jersey) Ltd., priority 2010, dated 2016).
Like-named read-outs stand apart in the source and are kept apart here.

Key:
PAMPA permeability = type: in vitro ADME; conditions: for Papp: PAMPA
From the text: The sample containing the reference compound was a suspension of crystals visible by the naked eye, while the other two samples were opalescent colloid solutions. The receiver compartment was phosphate buffered saline with 1% sodium lauryl sulphate and 5% DMSO.

human liver microsomes = conditions: cited from earlier work
[1] = Comparative dissolution test (wettability and redispersibility) in distillate water; type: physicochemical; conditions: 4.0 mg Aprepitant in 8.0 mL distillate water, stirred 10 minutes
[2] = over 72 hours, single oral 300 mg dose of [14C]-Aprepitant; cited from earlier work
[3] = cited from earlier work

ratio of PAMPA permeability for FeSSIF and FaSSIF (PAMPA permeability; FeSSIF/FaSSIF): 10.7 | Papp (PAMPA permeability; redispersed in FaSSIF): 0.044 ×10⁻⁶ cm/s | Papp (PAMPA permeability; redispersed in FeSSIF): 0.471 ×10⁻⁶ cm/s | wettability and redispersibility / dissolution [1]: did not wet and did not dissolve
Structure (SMILES): C[C@@H](O[C@H]1OCCN(Cc2n[nH]c(=O)[nH]2)[C@H]1c1ccc(F)cc1)c1cc(C(F)(F)F)cc(C(F)(F)F)c1 [Aprepitant, 5-[[(2R,3S)-2-[(1R)-1-[3,5-bis(trifluoromethyl)phenyl]ethoxy]-3-(4-fluorophenyl)-4-morpholinyl]methyl]-1,2-dihydro-3H-1,2,4-triazol-3-one]
CYP enzymes with no metabolism detected (human liver microsomes): No metabolism by CYP2D6, CYP2C9, or CYP2E1 was detected | metabolizing CYP enzymes (human liver microsomes): metabolized primarily by CYP3A4 with minor metabolism by CYP1A2 and CYP2C19 | share of the radioactivity in plasma accounted for by Aprepitant [2]: approximately 24% | solubility ([3]; acetonitrile): slightly soluble | solubility ([3]; ethanol): sparingly soluble | solubility ([3]; isopropyl acetate): sparingly soluble | solubility ([3]; water): practically insoluble
